Source: US6812025B2, “Two hybrid assay that detects HIV-1 reverse transcriptase dimerization” (priority 2000, dated 2004)

How the values were obtained:
RT heterodimer = target: T1, RT heterodimer (Human immunodeficiency virus type 1 group M subtype B, UniProt P12497); conditions: cited from earlier work
T1 construct: The enzyme is a heterodimer of p66 and p51 subunits

[1] = target: p66 and p51 subunits of the HIV-1 RT (Human immunodeficiency virus type 1 group M subtype B, UniProt P12497); assay: Y2H RT heterodimerization assay measuring effect of NNRTIs on b-gal activity (wild-type lexA87-66 + Gal4AD-51); assay type: cell-based; conditions: for enhancement of b-gal activity (relative potency): yeast expressing lexA87-66 and Gal4AD-51, drug added to culture medium
Procedure: (§1) Transformation of yeast and the qualitative β-galactosidase (β-gal) colony lift assay were as published (19). Quantification of protein-protein interactions was determined using the β-gal liquid assay performed on permeabilized yeast grown from three independent transformants using orthonitrophenyl-β-D-galactopyranoside as substrate (19).
Yeast and bacterial strains were as described previously (22). Transformation of yeast, the qualitative b-gal colony lift assay and the quantitative b-gal liquid assay were as previously described (22).
CTY10-5d transformed constructs expressing p66 bait and p51 prey fusions were grown overnight to stationary phase in synthetic complete medium without histidine and leucine and containing 2% glucose (SC-His-Leu). […] Yeast were grown with aeration at 30° C. to OD600=0.5. The equivalent of 1 OD600 unit was pelleted for each treatment and subjected to a quantitative b-gal liquid assay.
To test the effects of NNRTIs on the association of the RT polypeptides we used a yeast genetic assay that measures RT heterodimerization (22). […] To test for the effects of the NNRTIs on this interaction, 10 drugs representing 7 different NNRTI classes were added to the culture medium during growth of the yeast and b-gal levels were determined.

[2] = target: T2, lexA87-66L234A and Gal4AD-HA-51L234A (Human immunodeficiency virus type 1 group M subtype B, UniProt P04585, L821A); assay type: cell-based, HIV-1; conditions: yeast grown in efavirenz (1.6 μM) or UC781 (16 μM), compared to no drug
T2 construct: Yeast expressing p66 bait and p51 prey fusions containing the L234A mutation; expressed in transfected cells; host or cells: Saccharomyces cerevisiae CTY10-5d
From the text: Samples were resolved by SDS-PAGE. The leXA87-66 fusion protein was probed using monoclonal antibodies 7E5 which specifically detects p66 (31).
Hemagglutinin (HA) antibodies were used to immunoprecipitate the p51 prey and the presence of any bound p66 bait was then detected using anti-p66 specific antibodies. For coimmunoprecipitation of the p66 bait fusions, samples were divided into two with one part processed without added NNRTI while the other was maintained in drug at the same concentration used during growth of yeast.

HIV-1 = conditions: cited from earlier work
p66-His and GST-p51 = p66-His and GST-p51 (Human immunodeficiency virus type 1 group M subtype B, UniProt P04585); assay type: binding, HIV-1; conditions: for enhancement of dimerization of GST-p51 and p66-His in vitro: bacterial lysates, 1-1000 fold molar excess of drug, overnight
Procedure: Cells were induced and then lysed by the addition of 1 mg/ml of lysozyme to 1 ml of lysis buffer [50 mM sodium phosphate buffer (pH 7.8), 500 mM NaCl, 0.5% Nonidet P-40, 5 mM DTT, and 1 μg/ml each of pepstatin A, aprotinin and leupeptin] and clarified. Lysates were combined and incubated for 16 hrs at 4° C. The heterodimer was captured on Glutathione Sepharose 4B beads and unbound subunits were removed by washing with lysis buffer. Heterodimer bound to beads were resolved by SDS/PAGE. For quantification of RT activity, dimers were eluted from beads with 10 mM reduced glutathione in 50 mM Tris (pH 8.0). Samples were assayed for DNA polymerase activity on homopolymeric template-primers for various times, and the activity was determined from the initial slope of the linear phase of the time course.

p66/p51 heterodimer [3] = target: T3, p66/p51 heterodimer (Human immunodeficiency virus type 1 group M subtype B, UniProt P12497); conditions: cited from earlier work
T3 construct: The enzyme is a heterodimer of p66 and p51 subunits

p66/p51 heterodimer [4] = target: T3, p66/p51 heterodimer; assay: Y2H system, preliminary tests of TSAO on heterodimerization; assay type: cell-based, HIV-1; conditions: data not shown
Procedure: as §1
To date, there are no HIV-1 RT dimerization inhibitors being used in the clinic. Nevertheless, there are several reports of HIV-1 and HIV-2 RT dimerization inhibitors based on peptides representing the conserved tryptophan repeat region of RT (32, 37). […] However, the possibility that the drug is not taken up by yeast cannot be ruled out. The availability of a Y2H assay for RT dimerization will facilitate the screening for other such inhibitors of this process according to the methods set forth herein.

lexA87 and Gal4AD = target: T4, lexA87 and Gal4AD (UniProt P04386+P0A7C2); assay: Y2H specificity control, empty vectors pSH2-1 and pGADNOT; assay type: cell-based; conditions: serial dilutions, up to 15 μM of drug; data not shown
T4 construct: expressed in transfected cells; host or cells: Saccharomyces cerevisiae (yeast reporter strain)
T4 sequence (P0A7C2 1-87): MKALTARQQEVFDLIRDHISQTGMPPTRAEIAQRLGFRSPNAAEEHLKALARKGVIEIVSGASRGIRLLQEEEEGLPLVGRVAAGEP
T4 sequence (P04386 768-881): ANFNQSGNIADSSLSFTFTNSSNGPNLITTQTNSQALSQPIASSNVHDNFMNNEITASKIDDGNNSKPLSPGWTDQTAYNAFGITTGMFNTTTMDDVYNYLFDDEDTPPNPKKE
From the text: The specificity of the b-gal enhancement by NNRTIs was investigated. […].

HIV-1 RT = HIV-1 RT (Human immunodeficiency virus type 1 group M subtype B, UniProt P12497); assay: Exogenous RT assay (RT inhibitory activity); assay type: biochemical; conditions: results not shown

Compound: CC(C)=CCOc1cc(NC(=S)c2ccoc2C)ccc1Cl [UC781]
- binding to the RT heterodimer (RT heterodimer): bind very tightly
- dissociation rates (koff) (RT heterodimer): very slow dissociation rates
- enhancement of b-gal activity (relative potency) [1]: second most potent
- amount of p66 bait coimmunoprecipitated with p51 prey (heterodimer formation), L234A [2]: not for the L234A mutant
- inhibition of HIV-1 replication in vitro (HIV-1): extremely potent inhibitors of HIV-1 replication in vitro
- enhancement of dimerization of GST-p51 and p66-His in vitro (p66-His and GST-p51): poor dimerization inducers

Compound: 2′, 5′-bis-O-(tert-butylidimethylsilyl)-3′-spiro-5″-4″-amino-1′, 2″-oxothiole-2″,2″-dioxide)]-b-D-pentofuranosyl [TSAO]
- destabilization of the p66/p51 heterodimer (p66/p51 heterodimer [3]): destabilize the p66/p51 heterodimer
- effect on β-gal activity in the Y2H system (p66/p51 heterodimer [4]): no inhibition of β-gal activity
- effect on heterodimerization in in vitro binding assays (p66-His and GST-p51; preliminary tests, data not shown): reduce heterodimerization

Compound: Cc1occc1C(=S)Nc1ccc(Cl)c(/C=N/OC(C)(C)C)c1 [UC10]
- enhancement of dimerization of GST-p51 and p66-His in vitro (p66-His and GST-p51): poor dimerization inducers

Compound: CCn1c(=O)c(C)cn([C@@H]2O[C@H](CO[Si](C)(C)C(C)(C)C)C3(OS(=O)(=O)C=C3N)[C@H]2O[Si](C)(C)C(C)(C)C)c1=O (stereo partly drawn) [TSAOe^3T]
- destabilization of the p66/p51 heterodimer (p66/p51 heterodimer [3]): more modest destabilization only detectable in the presence of denaturants

Compound: O=C1Nc2ccc(Cl)cc2[C@@](C#CC2CC2)(C(F)(F)F)O1 [efavirenz]
- b-gal activity with empty vectors (lexA87 and Gal4AD): no increase in b-gal activity

Compound: CC(C)OC(=O)c1cc(NC(=S)OC(C)C)ccc1Cl [UC38]
- concentration of drug that mediates a 5-fold increase in b-gal activity (rank) ([1]; results not shown): least active
- RT inhibitory activity (50% inhibitory concentration), rank (HIV-1 RT): least active

Compound: COc1ccc2c(c1)N(C(=O)OC(C)C)[C@@H](CSC)C(=S)N2 [HBY 097]
- enhancement of b-gal activity (relative potency) [1]: most potent
- inhibition of HIV-1 replication in vitro (HIV-1): extremely potent inhibitors of HIV-1 replication in vitro

Compound: CC(C)Nc1cccnc1N1CCN(C(=O)c2cc3cc(NS(C)(=O)=O)ccc3[nH]2)CC1 [delavirdine]
- enhancement of b-gal activity (relative potency) [1]: devoid of b-gal enhancing activity
- enhancement of dimerization of GST-p51 and p66-His in vitro (p66-His and GST-p51): inactive in vitro
